Laboratory results from US20170121344A1 (Siga Technologies, Inc., priority 2009, published 2017).
Where two headings read alike, the source gives them in different places.

Key:
DENV-3 = assay: Viral yield assay against DENV-3 in Vero cells; assay type: cell-based; conditions: Dengue virus
Method: (§1) Compounds that were active in the primary screen were tested for activity in viral yield assays. […] Vero cells in 12-well plates were infected with dengue-2 virus at a multiplicity of infection (MOI) of 0.1, treated with compound (or DMSO as a control), incubated at 37° C., harvested 48 hours post infection and titered on Vero cells as described above. The EC50 was calculated through ExcelFit. Activities against other serotypes of dengue virus were determined in a similar way.

[1] = test system: Dengue-2 (Strain New Guinea C); assay: Viral yield assay against Dengue-2 in Vero cells; assay type: cell-based, Dengue virus; conditions: Dengue virus, DENV2, Vero cells, read-out: Activity (EC50 in μM) DENV-2
Summary of the method: (§2)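 Vero cells were infected with dengue virus at an MOI of 0.1, treated with compound or DMSO vehicle, and kept at 37° C. Supernatant virus was harvested 48 hours post infection and titered on Vero cells, with EC50 derived from yield reduction.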

DENV-4 = assay: Viral yield assay against DENV-4 in Vero cells; assay type: cell-based; conditions: Dengue virus
Summary of the method: as §2

DENV-1 = assay: Viral yield assay against DENV-1 in Vero cells; assay type: cell-based; conditions: Dengue virus
Method: as §1

[2] = viral yield assay, MOI 0.1, 48 hours post infection

Row | Compound | EC50 (DENV-3; DENV3, viral yield assay) [µM] | EC50 [1, 2] [µM] | EC50 (DENV-4; DENV4, viral yield assay) [µM] | EC50 (DENV-1; DENV1, viral yield assay) [µM] | EC50 (DENV-3; DENV3) [µM] | EC50 [1] [µM] | EC50 (DENV-4; DENV4) [µM] | EC50 (DENV-1; DENV1) [µM]
1 | Nc1c(C(=O)N(CCC(=O)O)c2cccc(C(F)(F)F)c2)sc2nc(-c3cccs3)ccc12 [Compound 327, 3-[N-[3-amino-6-(2-thienyl)thieno[2,3-b]pyridine-2-carbonyl]-3-(trifluoromethyl)-anilino]propanoic acid] | < 5 | < 5 | < 5 | < 5 | – | – | – | –
2 | Nc1c(C(=O)Nc2nnc(-c3ccccc3)s2)sc2nc3c(cc12)C(=O)CCCC3 [Compound 328] | 5 to 25 | < 5 | < 5 | < 5 | – | – | – | –
3 | Nc1c(C(=O)Nc2nnc(-c3ccccc3)s2)sc2nc3c(cc12)C(O)CCCC3 (stereo not shown) [Compound 329] | 5 to 25 | < 5 | < 5 | < 5 | – | – | – | –
4 | Nc1c(C(=O)Nc2nnc(-c3ccccc3)s2)sc2nc3c(cc12)C(F)CCCC3 (stereo not shown) [Compound 330] | 5 to 25 | < 5 | 5 to 25 | 5 to 25 | – | – | – | –
5 | Nc1c(C(=O)Nc2ccc(OC(F)(F)F)cc2)sc2nc(-c3ccc(Cl)cc3)ccc12 [Compound 331, 3-amino-6-(4-chlorophenyl)-N-[4-(trifluoromethoxy)phenyl]thieno[2,3-b]pyridine-2-carboxamide] | < 5 | < 5 | 5 to 25 | < 5 | – | – | – | –
6 | Nc1c(C(=O)Nc2ccc(OC(F)(F)F)cc2)sc2nc(-c3cccc(OC(F)(F)F)c3)ccc12 [Compound 332, 3-amino-6-[3-(trifluoromethoxy)phenyl]-N-[4-(trifluoromethoxy)phenyl]thieno[2,3-b]pyridine-2-carboxamide] | < 5 | < 5 | < 5 | < 5 | – | – | – | –
7 | Nc1c(C(=O)Nc2ccc(Cl)cc2)sc2nc(-c3ccc(Cl)cc3)ccc12 [Compound 333, 3-amino-N,6-bis(4-chlorophenyl)thieno [2,3-b]pyridine-2-carboxamide] | < 5 | < 5 | < 5 | < 5 | – | – | – | –
8 | Nc1c(C(=O)Nc2ccc(Br)cn2)sc2nc(-c3ccc(Cl)cc3)ccc12 [Compound 335, 3-amino-N-(5-bromo-2-pyridyl)-6-(4-chlorophenyl)thieno [2,3-b]pyridine-2-carboxamide] | < 5 | < 5 | < 5 | < 5 | – | – | – | –
9 | Nc1c(C(=O)Nc2ccc(Br)nc2)sc2nc(-c3ccc(Cl)cc3)ccc12 [Compound 336, 3-amino-N-(6-bromo-3-pyridyl)-6-(4-chlorophenyl)thieno [2,3-b]pyridine-2-carboxamide] | < 5 | < 5 | < 5 | < 5 | – | – | – | –
10 | Nc1c(C(=O)Nc2ccc(C(F)F)cc2)sc2nc(-c3ccc(Cl)cc3)ccc12 [Compound 337, 3-amino-6-(4-chlorophenyl)-N-[4-(difluoromethyl)phenyl]thieno[2,3-b]pyridine-2-carboxamide] | < 5 | < 5 | < 5 | < 5 | – | – | – | –
11 | CC(F)(F)c1ccc(NC(=O)c2sc3nc(-c4ccc(Cl)cc4)ccc3c2N)cc1 [Compound 338, 3-amino-6-(4-chlorophenyl)-N-[4-(1,1-difluoro-ethyl)phenyl] thieno[2,3-b] pyridine-2-carboxamide] | < 5 | < 5 | < 5 | < 5 | – | – | – | –
12 | Nc1c(C(=O)Nc2ccc(OC(F)(F)F)cc2)sc2nc(-c3cccc(OC(F)F)c3)ccc12 [Compound 339, 3-amino-6-[3-(difluoromethoxy)phenyl]-N-[4-(trifluoromethoxy)phenyl]thieno[2,3-b]pyridine-2-carboxamide] | < 5 | < 5 | < 5 | < 5 | – | – | – | –
13 | Nc1c(C(=O)Nc2ccc(OC(F)F)cc2)sc2nc(-c3ccc(Cl)cc3)ccc12 [Compound 340, 3-amino-6-(4-chlorophenyl)-N-[4-(difluoro-methoxy)phe-nyl]thieno[2,3-b]pyridine-2-carboxamide] | < 5 | < 5 | < 5 | < 5 | – | – | – | –
14 | Nc1c(C(=O)Nc2ccccc2Br)sc2nc(-c3ccc(Cl)cc3)ccc12 [Compound 341, 3-amino-N-(2-bromophenyl)-6-(4-chlorophenyl) thieno[2,3-b] pyridine-2-carboxamide] | < 5 | < 5 | < 5 | < 5 | – | – | – | –
15 | Nc1c(C(=O)Nc2ccc(Cl)c(Cl)c2)sc2nc(-c3ccc(Cl)cc3)ccc12 [Compound 342, 3-amino-6-(4-chlorophenyl)-N-(3,4-dichloro-phenyl)thieno [2,3-b]pyridine-2-carboxamide] | < 5 | < 5 | < 5 | < 5 | – | – | – | –
16 | Nc1c(C(=O)Nc2cccc(Cl)c2Cl)sc2nc(-c3ccc(Cl)cc3)ccc12 [Compound 343, 3-amino-6-(4-chlorophenyl)-N-(2,3-dichloro-phenyl)thieno [2,3-b]pyridine-2-carboxamide] | < 5 | < 5 | < 5 | < 5 | – | – | – | –
17 | Nc1c(C(=O)Nc2cccc(Cl)c2)sc2nc(-c3ccc(Cl)cc3)ccc12 [Compound 344, 3-amino-N-(3-chlorophenyl)-6-(4-chloro-phenyl)thieno[2,3-b]pyridine-2-carboxamide] | < 5 | < 5 | < 5 | < 5 | – | – | – | –
18 | Nc1c(C(=O)Nc2ccc(OC(F)F)cc2)sc2nc(-c3cccc(OC(F)F)c3)ccc12 [Compound 345, 3-amino-6-[3-(difluoromethoxy)phenyl]-N-[4-(difluoromethoxy)phenyl]thieno[2,3-b]pyridine-2-carboxamide] | < 5 | < 5 | < 5 | < 5 | – | – | – | –
19 | Nc1c(C(=O)Nc2ccc(Br)cc2)sc2nc(-c3ccc(Cl)cn3)ccc12 [Compound 349, 3-amino-N-(4-bromophenyl)-6-(5-chloro-2-pyridyl)thieno [2,3-b]pyridine-2-carboxamide] | < 5 | < 5 | < 5 | < 5 | – | – | – | –
20 | Nc1c(C(=O)N(CCC(=O)O)c2ccc(Br)cc2)sc2nc(-c3ccc(Cl)cc3)ccc12 [Compound 350, 3-(N-[3-amino-6-(4-chloro-phenyl)thieno [2,3-b]pyridine-2-carbonyl]-4-bromoanilino) propanoic acid] | < 5 | < 5 | < 5 | < 5 | – | – | – | –
21 | Nc1c(C(=O)Nc2ccc(Cl)cn2)sc2nc(-c3ccc(Cl)cc3)ccc12 [Compound 352, 3-amino-6-(4-chlorophenyl)-N-(5-chloro-2-pyridyl)thieno [2,3-b]pyridine-2-carboxamide] | < 5 | < 5 | < 5 | < 5 | – | – | – | –
22 | Nc1c(C(=O)Nc2ccc(Cl)nc2)sc2nc(-c3ccc(Cl)cc3)ccc12 [Compound 353, 3-amino-6-(4-chlorophenyl)-N-(6-chloro-3-pyridyl)thieno [2,3-b]pyridine-2-carboxamide] | < 5 | < 5 | < 5 | < 5 | – | – | – | –
23 | CC(=O)Nc1c(C(=O)Nc2nnc(-c3ccccc3)s2)sc2nc3c(cc12)CCCCC3 [Compound 358, 3-acetamido-N-(5-phenyl-1,3,4-thiadiazol-2-yl)-6,7,8,9-tetrahydro-5H-cyclohepta[b]thieno[3,2-e]pyridine-2-carboxamide] | – | – | – | – | 5 to 25 | < 5 | > 25 | < 5
24 | CNc1c(C(=O)Nc2nnc(-c3ccccc3)s2)sc2nc3c(cc12)CCCCC3 [Compound 359, 3-(methylamino)-N-(5-phenyl-1,3,4-thiadiazol-2-yl)-6,7,8,9-tetrahydro-5H-cyclohepta[b]thieno[3,2-e]pyridine-2-carboxamide] | – | – | – | – | > 25 | < 5 | 5 to 25 | < 5
25 | O=C(Nc1c(C(=O)Nc2nnc(-c3ccccc3)s2)sc2nc3c(cc12)CCCCC3)c1ccccn1 [Compound 360, N-(5-phenyl-1,3,4-thiadiazol-2-yl)-3-(picolinamido)-6,7,8,9-tetrahydro-5H-cyclohepta[b]thieno[3,2-e]pyridine-2-carboxamide] | – | – | – | – | > 25 | < 5 | < 5 | > 25
26 | NCC(=O)Nc1c(C(=O)Nc2nnc(-c3ccccc3)s2)sc2nc(Cl)ccc12 [Compound 361, 3-[(2-aminoacetyl)amino]-6-chloro-N-(5-phenyl-1,3,4-thiadiazol-2-yl)thieno[2,3-b]pyridine-2-carboxamide] | – | – | – | – | < 5 | < 5 | > 25 | < 5
27 | O=C(O)CC(=O)Nc1c(C(=O)Nc2nnc(-c3ccccc3)s2)sc2nc(Cl)ccc12 [Compound 362, 3-[[6-chloro-2-[(5-phenyl-1,3,4-thiadiazol-2-yl)carbamoyl]thieno[2,3-b]pyridin-3-yl]amino]-3-oxo-propanoic acid] | – | – | – | – | > 25 | 5 to 25 | > 25 | 5 to 25
28 | O=C(O)CN(CC(=O)O)c1c(C(=O)Nc2cccc(C(F)(F)F)c2)sc2nc(-c3cccs3)ccc12 [Compound 363, 2-[carboxymethyl-[6-(2-thienyl)-2-[[3-(trifluoromethyl)phenyl]carbamoyl]thieno[2,3-b]pyridin-3-yl]amino]acetic acid] | – | – | – | – | > 25 | < 5 | > 25 | 5 to 25
